From ChEMBL document CHEMBL1201862, “PubChem BioAssay data set” (2004)
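In this assay, cells in 96-well plates receive the compound at five concentrations for 48 hours. Endpoints are linearly interpolated between the surrounding concentrations. GI50 is the concentration that inhibits growth by half.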 The source made the active and inactive calls. Rule as the data show it: active = GI50 up to about 1.1 µM and inactive = higher.

Assays:
Assay in all cases: NCI tumour cell line growth inhibition, 48 h
786-0 = tested on: 786-0
A498 = tested on: A498
A549 = tested on: A549
ACHN = tested on: ACHN
CAKI-1 = tested on: CAKI-1
CCRF-CEM = tested on: CCRF-CEM
COLO 205 = tested on: COLO 205
DU-145 = tested on: DU-145
EKVX = tested on: EKVX
HCC 2998 = tested on: HCC 2998
HCT-116 = tested on: HCT-116
HCT-15 = tested on: HCT-15
HL-60 = tested on: HL-60
HOP-62 = tested on: HOP-62
HOP-92 = tested on: HOP-92
HT-29 = tested on: HT-29
Hs-578T = tested on: Hs-578T
IGROV-1 = tested on: IGROV-1
K562 = tested on: K562
KM12 = tested on: KM12
LOX IMVI = tested on: LOX IMVI
M14 = tested on: M14
MCF7 = tested on: MCF7
MDA-MB-231 = tested on: MDA-MB-231
MDA-MB-435 = tested on: MDA-MB-435
MDA-N = tested on: MDA-N
MOLT-4 = tested on: MOLT-4
Malme-3M = tested on: Malme-3M
NCI-H226 = tested on: NCI-H226
NCI-H23 = tested on: NCI-H23
NCI-H460 = tested on: NCI-H460
NCI-H522 = tested on: NCI-H522
NCI/ADR-RES = tested on: NCI/ADR-RES
OVCAR-3 = tested on: OVCAR-3
OVCAR-4 = tested on: OVCAR-4
OVCAR-5 = tested on: OVCAR-5
OVCAR-8 = tested on: OVCAR-8
RPMI-8226 = tested on: RPMI-8226
RXF 393 = tested on: RXF 393
SF-268 = tested on: SF-268
SF-295 = tested on: SF-295
SF-539 = tested on: SF-539
SK-MEL-28 = tested on: SK-MEL-28
SK-MEL-5 = tested on: SK-MEL-5
SK-OV-3 = tested on: SK-OV-3
SN12C = tested on: SN12C
SNB-19 = tested on: SNB-19
SNB-75 = tested on: SNB-75
SR = tested on: SR
SW-620 = tested on: SW-620
T47D = tested on: T47D
TK-10 = tested on: TK-10
U-251 = tested on: U-251
UACC-257 = tested on: UACC-257
UACC-62 = tested on: UACC-62

SMILES: CCOP(=O)(OCC)/C(C#N)=C/c1ccccn1
- GI50 (786-0): > 100 µM (inactive)
- GI50 (A498): > 100 µM (inactive)
- GI50 (A549): > 100 µM (inactive)
- GI50 (ACHN): > 100 µM (inactive)
- GI50 (CAKI-1): > 100 µM (inactive)
- GI50 (CCRF-CEM): > 100 µM (inactive)
- GI50 (COLO 205): > 100 µM (inactive)
- GI50 (DU-145): > 100 µM (inactive)
- GI50 (EKVX): > 100 µM (inactive)
- GI50 (HCC 2998): > 100 µM (inactive)
- GI50 (HCT-116): > 100 µM (inactive)
- GI50 (HCT-15): > 100 µM
- GI50 (HL-60): > 100 µM (inactive)
- GI50 (HOP-62): > 100 µM (inactive)
- GI50 (HOP-92): > 100 µM (inactive)
- GI50 (HT-29): > 100 µM (inactive)
- GI50 (Hs-578T): > 100 µM (inactive)
- GI50 (IGROV-1): > 100 µM (inactive)
- GI50 (K562): > 100 µM (inactive)
- GI50 (KM12): > 100 µM (inactive)
- GI50 (LOX IMVI): > 100 µM (inactive)
- GI50 (M14): > 100 µM (inactive)
- GI50 (MCF7): > 100 µM (inactive)
- GI50 (MDA-MB-231): > 100 µM (inactive)
- GI50 (MDA-MB-435): > 100 µM (inactive)
- GI50 (MDA-N): > 100 µM (inactive)
- GI50 (MOLT-4): > 100 µM (inactive)
- GI50 (Malme-3M): > 100 µM (inactive)
- GI50 (NCI-H226): > 100 µM (inactive)
- GI50 (NCI-H23): > 100 µM (inactive)
- GI50 (NCI-H460): > 100 µM (inactive)
- GI50 (NCI-H522): > 100 µM (inactive)
- GI50 (NCI/ADR-RES): > 100 µM (inactive)
- GI50 (OVCAR-3): > 100 µM (inactive)
- GI50 (OVCAR-4): > 100 µM (inactive)
- GI50 (OVCAR-5): > 100 µM (inactive)
- GI50 (OVCAR-8): > 100 µM (inactive)
- GI50 (RPMI-8226): > 100 µM (inactive)
- GI50 (RXF 393): > 100 µM (inactive)
- GI50 (SF-268): > 100 µM (inactive)
- GI50 (SF-295): > 100 µM (inactive)
- GI50 (SF-539): > 100 µM (inactive)
- GI50 (SK-MEL-28): > 100 µM (inactive)
- GI50 (SK-MEL-5): > 100 µM (inactive)
- GI50 (SK-OV-3): > 100 µM (inactive)
- GI50 (SN12C): > 100 µM (inactive)
- GI50 (SNB-19): > 100 µM (inactive)
- GI50 (SNB-75): > 100 µM (inactive)
- GI50 (SR): > 100 µM (inactive)
- GI50 (SW-620): > 100 µM (inactive)
- GI50 (T47D): > 100 µM (inactive)
- GI50 (TK-10): > 100 µM (inactive)
- GI50 (U-251): > 100 µM (inactive)
- GI50 (UACC-257): > 100 µM (inactive)
- GI50 (UACC-62): > 100 µM (inactive)
